In patent publication US20240208909A1, “SUBSTITUTED QUINOLINE DERIVATIVES HAVING SOS1 INHIBITION ACTIVITIES AND USES THEREOF” (Accutar Biotechnology Inc., priority 2022, published 2024):

Legend:
SOS1/KRAS-G12D = SOS1/KRAS-G12D (Homo sapiens (Human), UniProt Q07889); test: SOS1/KRAS-G12D binding inhibition assay (AlphaScreen); conditions: GST-SOS1 and 6*His KRAS-G12D, read-out: KrasG12D/SOS1 binding IC50
Description: Example 22: SOS1/KRAS-G12D Binding Inhibition Assay
SOS1 binding affinity of candidate compounds was measured by monitoring the interaction of SOS1 with KRAS-G12D in the presence of the test compound. Briefly, 5 nM GST tagged SOS1 proteins (final concentration) were pre-incubated with 50 nM 6*His tagged KRAS-G12D proteins (final concentration) in an assay buffer containing 10 mM HEPES, pH 7.4, 150 mM NaCl, 1 mM DTT, 5 mM MgCl2, 0.1% Tween-20, and 0.05% BSA for 30 minutes. The test compounds in 2% DMSO (final concentration) at various concentrations were then added to the reaction mixture and incubated for another 30 minutes at 4° C. 5 ug/ml GSH AlphaScreen donor beads (PerkinElmer, 6765300) and 5 ug/ml nickel chelate (Ni-NTA) AlphaScreen acceptor beads (PerkinElmer, 6760619C) (final concentrations) were then added to the mixture. After an incubation of 2 hours at 4° C., the fluorescent signals were obtained on the EnVision® 2105 Multilabel Plate Reader (PerkinElmer).
Raw AlphaScreen data were converted to a percentage of inhibition (relative to DMSO) using the following equations: • a) For a given test compound concentration X:
Signal (X)=Signal (SOS1 & KRAS-G12D & compound)-Signal (buffer & KRAS-G12D & compound)
Percentage of inhibition at concentration X=[1−Signal (X)/Signal (DMSO)]*100% b)
The IC50 values were determined by nonlinear regression of plots of [inhibitor] vs. percentage of inhibition with variable slope, analyzed using GraphPad Prism 9.

[1] = test system: Phospho-ERK1/2 in DLD1 cells; test: Phospho-ERK1/2 expression inhibition in DLD1 cells; format: cell-based; conditions: Homo sapiens, DLD-1, 4 hours, read-out: DLD1 pERK IC50
Description: Example 23: Phospho-ERK1/2 Expression Inhibition in DLD1 Cells
DLD1 cells were obtained from American Type Culture Collection (ATCC). DLD1 cells were plated in 96-well plates (VWR #10062-900, or Corning #3904) in 90 uL culture medium at a density of 15,000 cells/well in the RPM11640 growth medium containing 10% FBS and 1% Penicillin Streptomycin, and then incubated at 37° C. overnight. The following day, the test compound was administered to the cells by using 1000×x compound stock solution prepared in DMSO at various concentrations. 1000× compound stock solution was first diluted in culturing medium to 10×, then 10 uL compound medium was added to each well in the cell plates. After administration of the compound, the cells were then incubated at 37° C. for 4 hours. Upon completion, the cells were washed with PBS briefly. 150 uL/well of 4% formaldehyde was added and the plates were incubated at room temperature for 20 mins. The cells were washed with PBS briefly, and permeabilized with 150 uL/well of ice cold 100% methanol for 10 mins. The cells were washed with PBS briefly and blocked with 100 uL/well LI-COR blocking buffer for 1 hr at room temperature with gentle shaking. The cells were incubated overnight at 4° C. with 50 uL primary antibody rabbit anti-Phospho-ERK1/2 (1: 500, Cell Signaling, #4370) diluted in Intercept Blocking Buffer (LI-COR, #927-60001) containing 0.1% Tween 20. The next day, the cells were washed with 200 uL PBS containing 0.1% Tween 20, 5×5 mins at room temperature with gentle shaking, and incubated with 50 uL secondary antibody, IRDye® 800CW Goat anti-Rabbit IgG (LI-COR, #926-32211), 1:1000, in LI-COR blocking buffer with 0.2% Tween 20 for 1 hr at room temperature with gentle shaking. The cells were washed with 200 uL PBS containing 0.1% Tween 20, 5×5 mins at room temperature with gentle shaking. The cells were washed with PBS for 5 mins. 100 uL fresh PBS was added to each well and the plates were imaged on a LI-COR Odyssey CLX plate reader.

K562 cells = test: Cell growth inhibition of K562 cells (CellTiter-Glo); format: cell-based; conditions: Homo sapiens, 120 h, 5 days
Description: Example 24: Cell Growth Inhibition of K562 Cells
K562 cells were obtained from American Type Culture Collection (ATCC). For cell growth assay, K562 cells were seeded in 96-well plates at 1000 cells/well in 90 μl of RPM11640 growth medium containing 10% FBS and 1% Penicillin Streptomycin, and then incubated at 37° C. for 1 hour. The test compound was administered to the cells by using 1000× compound stock solution prepared in DMSO at various concentrations. 1000× compound stock solution was first diluted in culturing medium to 10×, then 10 uL compound medium was added to each well in the cell plates. After administration of the compound, the cells were then incubated at 37° C. for 5 days. Upon completion, the plates were equilibrated at room temperature for approximately 10 minutes. 100 ul of CellTiter-Glo® Reagent (Promega) was added to each well. The plates were then incubated at room temperature for 10 minutes and luminescence was recorded by EnSpire plate reader (PerkinElmer).

SOS1/KRAS-G12D, sequence (Q07889 564-1049 limits assumed): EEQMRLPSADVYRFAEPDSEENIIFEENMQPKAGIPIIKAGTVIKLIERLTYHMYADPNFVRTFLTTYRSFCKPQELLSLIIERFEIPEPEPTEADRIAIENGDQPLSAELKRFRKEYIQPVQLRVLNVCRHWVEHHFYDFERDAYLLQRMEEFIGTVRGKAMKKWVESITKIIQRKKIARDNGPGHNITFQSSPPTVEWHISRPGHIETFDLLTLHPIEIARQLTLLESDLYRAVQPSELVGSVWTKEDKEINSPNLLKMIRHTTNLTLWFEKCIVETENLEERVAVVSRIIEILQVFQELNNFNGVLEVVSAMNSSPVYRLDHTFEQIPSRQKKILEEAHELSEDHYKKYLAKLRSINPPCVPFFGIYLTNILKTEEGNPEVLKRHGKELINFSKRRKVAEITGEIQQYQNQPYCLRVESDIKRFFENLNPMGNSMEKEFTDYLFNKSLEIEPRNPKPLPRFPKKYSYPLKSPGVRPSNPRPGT

SMILES	IC50 (SOS1/KRAS-G12D)	IC50 [1]	GI50 (K562 cells)
C[C@@H](Nc1ccnc2ccc(N3CCN(C(=O)[C@H]4CCOC4)CC3)cc12)c1cccc(C(F)F)c1F [Compound 14, (4-(4-(((R)-1-(3-(difluoromethyl)-2-fluorophenyl)ethyl)amino)quinolin-6-yl)piperazin-1-yl)((S)-tetrahydrofuran-3-yl)methanone]	≤ 10 nM	150 to 500 nM	≤ 100 nM
C[C@@H](Nc1ccnc2ccc(N3CCN(C(=O)[C@@H]4CCOC4)CC3)cc12)c1cccc(C(F)F)c1F [Compound 15, (4-(4-(((R)-1-(3-(difluoromethyl)-2-fluorophenyl)ethyl)amino)quinolin-6-yl)piperazin-1-yl)((R)-tetrahydrofuran-3-yl)methanone]	≤ 10 nM	≤ 150 nM	100 to 500 nM
C[C@@H](Nc1ccnc2ccc(N3CCN(C(=O)C4COC4)CC3)cc12)c1cccc(C(F)F)c1F [Compound 16, (R)-(4-(4-((1-(3-(difluoromethyl)-2-fluorophenyl)ethyl)amino)quinolin-6-yl)piperazin-1-yl)(oxetan-3-yl)methanone]	≤ 10 nM	≤ 150 nM	≤ 100 nM
CC(C)C(=O)N1CCN(c2ccc3nccc(N[C@H](C)c4cccc(C(F)F)c4F)c3c2)CC1 [Compound 17, (R)-1-(4-(4-((1-(3-(difluoromethyl)-2-fluorophenyl)ethyl)amino)quinolin-6-yl)piperazin-1-yl)-2-methylpropan-1-one]	≤ 10 nM	≤ 150 nM	100 to 500 nM
C[C@@H](Nc1ccnc2ccc(N3CC[C@H](N)C3)cc12)c1cccc(C(F)F)c1F [Compound 18, 6-((S)-3-aminopyrrolidin-1-yl)-N-((R)-1-(3-(difluoromethyl)-2-fluorophenyl)ethyl)quinolin-4-amine]	10 to 100 nM	> 500 nM	> 500 nM
Cc1c([C@@H](C)Nc2ccnc3ccc(N4CC5CC(C4)O5)cc23)cccc1C(F)(F)F [Compound 19, 6-(6-oxa-3-azabicyclo[3.1.1]heptan-3-yl)-N-((R)-1-(2-methyl-3-(trifluoromethyl)phenyl)ethyl)quinolin-4-amine]	> 100 nM	> 500 nM	100 to 500 nM
Cc1c([C@@H](C)Nc2ccnc3ccc(N4CC[C@@H](N)C4)cc23)cccc1C(F)(F)F [Compound 20, 6-((R)-3-aminopyrrolidin-1-yl)-N-((R)-1-(2-methyl-3-(trifluoromethyl)phenyl)ethyl)quinolin-4-amine]	> 100 nM	> 500 nM	> 500 nM
Cc1c([C@@H](C)Nc2ccnc3ccc(N4CC5(CCN(C)C5=O)C4)cc23)cccc1C(F)(F)F [Compound 21, (R)-6-methyl-2-(4-((1-(2-methyl-3-(trifluoromethyl)phenyl)ethyl)amino)quinolin-6-yl)-2,6-diazaspiro[3.4]octan-5-one]	> 100 nM	> 500 nM	> 500 nM
Cc1c([C@@H](C)Nc2ccnc3ccc(N4C[C@@H]5C[C@H]4CO5)cc23)cccc1C(F)(F)F [Compound 22, 6-((1S,4S)-2-oxa-5-azabicyclo[2.2.1]heptan-5-yl)-N-((R)-1-(2-methyl-3-(trifluoromethyl)phenyl)ethyl)quinolin-4-amine]	> 100 nM	> 500 nM	> 500 nM
Cc1c([C@@H](C)Nc2ccnc3ccc(N4CCC5(CCN(C)C5=O)CC4)cc23)cccc1C(F)(F)F [Compound 23, (R)-2-methyl-8-(4-((1-(2-methyl-3-(trifluoromethyl)phenyl)ethyl)amino)quinolin-6-yl)-2,8-diazaspiro[4.5]decan-1-one]	10 to 100 nM	> 500 nM	100 to 500 nM
Cc1c([C@@H](C)Nc2ccnc3ccc(N4CCN(c5cnn(C)c5)CC4)cc23)cccc1C(F)(F)F [Compound 24, (R)-6-(4-(1-methyl-1H-pyrazol-4-yl)piperazin-1-yl)-N-(1-(2-methyl-3-(trifluoromethyl)phenyl)ethyl)quinolin-4-amine]	> 100 nM	> 500 nM	100 to 500 nM
Cc1c([C@@H](C)Nc2ccnc3ccc(N4CCn5ncnc5C4)cc23)cccc1C(F)(F)F [Compound 25, (R)-6-(5,6-dihydro-[1,2,4]triazolo[1,5-a]pyrazin-7(8H)-yl)-N-(1-(2-methyl-3-(trifluoromethyl)phenyl)ethyl)quinolin-4-amine]	> 100 nM	150 to 500 nM	100 to 500 nM
Cc1c([C@@H](C)Nc2ccnc3ccc(N4CCN(C(=O)C5CC5)CC4)cc23)cccc1C(F)(F)F [Compound 26, (R)-cyclopropyl(4-(4-((1-(2-methyl-3-(trifluoromethyl)phenyl)ethyl)amino)quinolin-6-yl)piperazin-1-yl)methanone]	10 to 100 nM	> 500 nM	100 to 500 nM
CC(=O)N1CCN(c2ccc3nccc(N[C@H](C)c4cccc(C(F)(F)F)c4C)c3c2)CC1 [Compound 27, (R)-1-(4-(4-((1-(2-methyl-3-(trifluoromethyl)phenyl)ethyl)amino)quinolin-6-yl)piperazin-1-yl)ethan-1-one]	10 to 100 nM	> 500 nM	> 500 nM
CNC1CCN(c2ccc3nccc(N[C@H](C)c4cccc(C(F)(F)F)c4C)c3c2)CC1 [Compound 28, (R)-N-(1-(2-methyl-3-(trifluoromethyl)phenyl)ethyl)-6-(4-(methylamino)piperidin-1-yl)quinolin-4-amine]	10 to 100 nM	> 500 nM	> 500 nM
Cc1c([C@@H](C)Nc2ccnc3ccc(N4CCN(C(=O)C5COC5)CC4)cc23)cccc1C(F)(F)F [Compound 29, (R)-(4-(4-((1-(2-methyl-3-(trifluoromethyl)phenyl)ethyl)amino)quinolin-6-yl)piperazin-1-yl)(oxetan-3-yl)methanone]	10 to 100 nM	> 500 nM	100 to 500 nM
C[C@@H](Nc1ccnc2c(F)cc(N3CC[C@@H](N)C3)cc12)c1cccc(C(F)F)c1F [Compound 30, 6-((R)-3-aminopyrrolidin-1-yl)-N-((R)-1-(3-(difluoromethyl)-2-fluorophenyl)ethyl)-8-fluoroquinolin-4-amine]	10 to 100 nM	> 500 nM	100 to 500 nM
C[C@@H](Nc1ccnc2ccc(N3CC[C@@H](N(C)C)C3)cc12)c1cccc(C(F)F)c1F [Compound 31, N-((R)-1-(3-(difluoromethyl)-2-fluorophenyl)ethyl)-6-((R)-3-(dimethylamino)pyrrolidin-1-yl)quinolin-4-amine]	≤ 10 nM	> 500 nM	≤ 100 nM
Cc1c([C@@H](C)Nc2ccnc3ccc(N4CCC(N(C)C)CC4)cc23)cccc1C(F)(F)F [Compound 32, (R)-6-(4-(dimethylamino)piperidin-1-yl)-N-(1-(2-methyl-3-(trifluoromethyl)phenyl)ethyl)quinolin-4-amine]	10 to 100 nM	> 500 nM	100 to 500 nM
